Reference: ChEMBL document CHEMBL1201862, “PubChem BioAssay data set” (2004)
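Each compound was tested at five concentrations against cells in 96-well plates for 48 hours. Abbreviation: GI50, concentration required for 50% inhibition of growth.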 Activity calls are given as the source filed them. Cut-off read from the data, not from the text of the source: active = GI50 up to about 1.1 µM and inactive = higher.

What was measured:
Test in all cases: NCI tumour cell line growth inhibition, 48 h
[1] = system: EKVX
[2] = system: IGROV-1
[3] = system: A549
[4] = system: SN12C
[5] = system: NCI-H522
[6] = system: SF-268
[7] = system: HCC 2998
[8] = system: SNB-19
[9] = system: COLO 205
[10] = system: LOX IMVI
[11] = system: NCI/ADR-RES
[12] = system: SR
[13] = system: RPMI-8226
[14] = system: TK-10
[15] = system: 786-0
[16] = system: UO-31
[17] = system: NCI-H226
[18] = system: OVCAR-3
[19] = system: MCF7
[20] = system: MDA-MB-435

Compound	GI50 [1]	GI50 [2]	GI50 [3]	GI50 [4]	GI50 [5]	GI50 [6]	GI50 [7]	GI50 [8]	GI50 [9]	GI50 [10]	GI50 [11]	GI50 [12]	GI50 [13]	GI50 [14]	GI50 [15]	GI50 [16]	GI50 [17]	GI50 [18]	GI50 [19]	GI50 [20]
O=C(Nc1cccc2cnccc12)c1cc2c(cc1Cl)Sc1nccn1S2(=O)=O	20.7 µM (inactive)	15.8 µM (inactive)	27.7 µM (inactive)	14.4 µM (inactive)	13.1 µM (inactive)	16.2 µM (inactive)	15.7 µM (inactive)	17.9 µM (inactive)	15.3 µM (inactive)	5.65 µM (inactive)	14.4 µM (inactive)	3.28 µM (inactive)	6.11 µM (inactive)	24.4 µM (inactive)	10.9 µM (inactive)	18.6 µM (inactive)	18.4 µM (inactive)	19.9 µM (inactive)	5.36 µM (inactive)	6.76 µM (inactive)
CSC(=O)/C=C1\SS/C(=C\C(=O)SC)S1	2.4 µM (inactive)	3.37 µM (inactive)	6.24 µM (inactive)	1.82 µM (inactive)	2.39 µM (inactive)	2.49 µM (inactive)	1.8 µM (inactive)	6.92 µM (inactive)	6.31 µM (inactive)	1.55 µM (inactive)	2.34 µM (inactive)	1.96 µM (inactive)	1.55 µM (inactive)	4.93 µM (inactive)	1.85 µM (inactive)	2.43 µM (inactive)	1.77 µM (inactive)	2.99 µM (inactive)	2.74 µM (inactive)	2.29 µM (inactive)
NC1CC(=O)c2c(I)sc(I)c21 (stereo not given)	19.9 µM (inactive)	15.2 µM (inactive)	29.8 µM (inactive)	27.3 µM (inactive)	7.69 µM (inactive)	21 µM (inactive)	22 µM (inactive)	23.8 µM (inactive)	14.9 µM (inactive)	13.3 µM (inactive)	26.9 µM (inactive)	13.4 µM (inactive)	4.41 µM (inactive)	19 µM (inactive)	11.2 µM (inactive)	19.2 µM (inactive)	19.1 µM (inactive)	20 µM (inactive)	25.4 µM (inactive)	16.4 µM (inactive)
O=[N+]([O-])C(=C/c1cccs1)/C(=C\c1cccs1)[N+](=O)[O-]	2.29 µM (inactive)	0.774 µM (active)	2.27 µM (inactive)	0.547 µM (active)	0.327 µM (active)	0.861 µM (active)	1.21 µM (inactive)	1.98 µM (inactive)	0.429 µM (active)	0.209 µM (active)	0.54 µM (active)	0.0719 µM (active)	0.267 µM (active)	0.962 µM (active)	0.298 µM (active)	1.2 µM (inactive)	2.77 µM (inactive)	1.85 µM (inactive)	0.676 µM (active)	0.441 µM (active)
Clc1ccc(-c2ccc(-c3nnc(CCc4nnc(-c5ccc(-c6ccc(Cl)cc6)o5)o4)o3)o2)cc1	> 85.3 µM (inactive)	> 71.9 µM (inactive)	> 100 µM (inactive)	> 100 µM (inactive)	24.8 µM (inactive)	28.6 µM (inactive)	> 100 µM (inactive)	> 100 µM (inactive)	> 100 µM (inactive)	> 100 µM (inactive)	> 100 µM (inactive)	0.276 µM (active)	34 µM (inactive)	40.9 µM (inactive)	> 43.3 µM (inactive)	> 100 µM (inactive)	> 61.7 µM (inactive)	> 100 µM (inactive)	> 61.4 µM (inactive)	> 100 µM (inactive)
